Results reported in the kinase profiling compilation of Christmann-Franck et al. (2016).

Columns and labels:
Experiment in all cases: radiometric filter-binding kinase assay, Kinase HotSpot
Details in all cases: compound 0.5 µM; ATP 10 µM
[1] = molecular target: MAPK3 (human) (UniProt P27361)
[2] = molecular target: MAP3K9 (human) (UniProt P80192)
[3] = molecular target: PLK1 (human) (UniProt P53350)
[4] = molecular target: CDK5 CDK5R1 p25 (human) (UniProt Q00535+Q15078)
[5] = molecular target: RPS6KA5 KD2 (human) (UniProt O75582)
[6] = molecular target: GRK4 (human) (UniProt P32298)
[7] = molecular target: LCK (human) (UniProt P06239)
Sequence of LCK (human) (P06239 whole entry, looked up): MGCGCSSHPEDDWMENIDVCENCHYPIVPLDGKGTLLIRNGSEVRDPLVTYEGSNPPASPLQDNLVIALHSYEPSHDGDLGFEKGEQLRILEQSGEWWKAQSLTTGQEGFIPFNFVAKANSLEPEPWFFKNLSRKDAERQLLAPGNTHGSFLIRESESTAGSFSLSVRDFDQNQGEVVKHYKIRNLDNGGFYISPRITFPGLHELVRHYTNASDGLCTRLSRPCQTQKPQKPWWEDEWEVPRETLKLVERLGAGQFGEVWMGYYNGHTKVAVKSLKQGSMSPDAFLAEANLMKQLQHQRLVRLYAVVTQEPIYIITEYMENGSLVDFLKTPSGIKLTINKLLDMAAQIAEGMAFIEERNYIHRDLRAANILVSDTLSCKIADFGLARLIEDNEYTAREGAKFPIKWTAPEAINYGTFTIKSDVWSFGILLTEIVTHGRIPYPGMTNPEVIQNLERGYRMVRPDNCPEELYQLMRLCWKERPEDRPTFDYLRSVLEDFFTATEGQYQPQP

[8] = molecular target: PRKD3 (human) (UniProt O94806)
[9] = molecular target: IKBKE (human) (UniProt Q14164)
[10] = molecular target: EPHA3 (human) (UniProt P29320)
[11] = molecular target: ALK (human) (UniProt Q9UM73)
[12] = molecular target: MAPK14 (human) (UniProt Q16539)
[13] = molecular target: NLK (human) (UniProt Q9UBE8)
[14] = molecular target: PAK2 (human) (UniProt Q13177)
[15] = molecular target: AKT2 (human) (UniProt P31751)
[16] = molecular target: CSK (human) (UniProt P41240)
[17] = molecular target: ACVRL1 (human) (UniProt P37023)
[18] = molecular target: CLK1 (human) (UniProt P49759)
Sequence of CLK1 (human) (P49759 whole entry, looked up): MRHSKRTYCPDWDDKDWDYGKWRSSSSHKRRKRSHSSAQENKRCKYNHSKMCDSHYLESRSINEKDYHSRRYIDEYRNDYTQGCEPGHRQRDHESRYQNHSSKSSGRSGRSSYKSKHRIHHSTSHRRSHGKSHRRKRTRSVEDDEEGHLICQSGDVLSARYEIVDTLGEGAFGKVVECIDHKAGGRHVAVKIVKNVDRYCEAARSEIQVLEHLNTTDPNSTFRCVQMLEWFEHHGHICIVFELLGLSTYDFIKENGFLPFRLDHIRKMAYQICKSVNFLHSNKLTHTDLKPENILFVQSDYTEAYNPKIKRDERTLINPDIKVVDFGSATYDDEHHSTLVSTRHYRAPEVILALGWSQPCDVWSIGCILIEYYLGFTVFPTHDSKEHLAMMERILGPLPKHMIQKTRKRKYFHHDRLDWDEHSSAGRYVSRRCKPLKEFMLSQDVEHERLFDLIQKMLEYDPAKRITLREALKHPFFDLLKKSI

[19] = molecular target: NEK9 (human) (UniProt Q8TD19)
[20] = molecular target: SGK3 (human) (UniProt Q96BR1)
[21] = molecular target: MARK2 (human) (UniProt Q7KZI7)
[22] = molecular target: PRKCA (human) (UniProt P17252)
[23] = molecular target: SRC (human) (UniProt P12931)
[24] = molecular target: MAPK10 (human) (UniProt P53779)
[25] = molecular target: DYRK3 (human) (UniProt O43781)
Sequence of DYRK3 (human) (O43781 whole entry, looked up): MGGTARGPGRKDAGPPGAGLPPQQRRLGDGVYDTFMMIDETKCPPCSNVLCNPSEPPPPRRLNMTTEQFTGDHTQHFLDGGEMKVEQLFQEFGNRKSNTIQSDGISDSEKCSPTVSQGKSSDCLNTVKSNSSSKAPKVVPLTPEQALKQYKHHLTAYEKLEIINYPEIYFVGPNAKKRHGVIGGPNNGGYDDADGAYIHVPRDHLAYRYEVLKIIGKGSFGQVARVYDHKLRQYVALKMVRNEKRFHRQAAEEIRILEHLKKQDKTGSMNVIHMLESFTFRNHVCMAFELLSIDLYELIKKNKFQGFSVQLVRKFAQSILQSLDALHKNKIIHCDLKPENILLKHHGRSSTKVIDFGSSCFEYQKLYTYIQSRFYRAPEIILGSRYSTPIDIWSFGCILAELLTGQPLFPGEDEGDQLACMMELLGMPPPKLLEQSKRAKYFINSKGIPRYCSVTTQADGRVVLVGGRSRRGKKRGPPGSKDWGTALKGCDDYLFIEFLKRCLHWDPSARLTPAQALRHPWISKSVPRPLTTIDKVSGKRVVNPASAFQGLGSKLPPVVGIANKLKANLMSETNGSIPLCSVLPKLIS

[26] = molecular target: PHKG2 (human) (UniProt P15735)
[27] = molecular target: NTRK3 (human) (UniProt Q16288)
[28] = molecular target: DDR2 (human) (UniProt Q16832)
Sequence of DDR2 (human) (Q16832 whole entry, looked up): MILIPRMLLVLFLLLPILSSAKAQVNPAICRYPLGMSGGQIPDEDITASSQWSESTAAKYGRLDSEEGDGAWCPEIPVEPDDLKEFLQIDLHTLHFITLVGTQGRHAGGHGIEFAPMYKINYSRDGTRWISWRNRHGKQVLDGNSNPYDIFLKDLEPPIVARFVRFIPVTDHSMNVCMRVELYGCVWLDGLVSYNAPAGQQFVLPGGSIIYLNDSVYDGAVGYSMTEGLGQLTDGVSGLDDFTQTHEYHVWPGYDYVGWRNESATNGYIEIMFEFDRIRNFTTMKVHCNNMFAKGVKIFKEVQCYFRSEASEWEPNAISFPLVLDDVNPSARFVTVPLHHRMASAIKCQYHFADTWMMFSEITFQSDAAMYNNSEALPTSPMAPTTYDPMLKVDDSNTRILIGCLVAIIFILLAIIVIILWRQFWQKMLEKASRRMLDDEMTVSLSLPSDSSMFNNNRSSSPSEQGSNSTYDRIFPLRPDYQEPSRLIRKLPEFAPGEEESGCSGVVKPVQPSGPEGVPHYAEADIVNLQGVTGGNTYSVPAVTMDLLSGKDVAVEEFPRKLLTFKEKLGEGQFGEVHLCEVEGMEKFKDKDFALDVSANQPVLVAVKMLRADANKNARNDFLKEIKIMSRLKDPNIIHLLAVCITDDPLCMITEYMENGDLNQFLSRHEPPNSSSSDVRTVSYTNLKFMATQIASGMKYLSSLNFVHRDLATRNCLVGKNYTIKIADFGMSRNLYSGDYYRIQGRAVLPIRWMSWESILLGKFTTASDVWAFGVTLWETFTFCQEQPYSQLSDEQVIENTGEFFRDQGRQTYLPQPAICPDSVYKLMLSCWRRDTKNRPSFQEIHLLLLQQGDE

[29] = molecular target: HIPK2 (human) (UniProt Q9H2X6)
[30] = molecular target: MELK (human) (UniProt Q14680)
[31] = molecular target: IGF1R (human) (UniProt P08069)
Sequence of IGF1R (human) (P08069 whole entry, looked up): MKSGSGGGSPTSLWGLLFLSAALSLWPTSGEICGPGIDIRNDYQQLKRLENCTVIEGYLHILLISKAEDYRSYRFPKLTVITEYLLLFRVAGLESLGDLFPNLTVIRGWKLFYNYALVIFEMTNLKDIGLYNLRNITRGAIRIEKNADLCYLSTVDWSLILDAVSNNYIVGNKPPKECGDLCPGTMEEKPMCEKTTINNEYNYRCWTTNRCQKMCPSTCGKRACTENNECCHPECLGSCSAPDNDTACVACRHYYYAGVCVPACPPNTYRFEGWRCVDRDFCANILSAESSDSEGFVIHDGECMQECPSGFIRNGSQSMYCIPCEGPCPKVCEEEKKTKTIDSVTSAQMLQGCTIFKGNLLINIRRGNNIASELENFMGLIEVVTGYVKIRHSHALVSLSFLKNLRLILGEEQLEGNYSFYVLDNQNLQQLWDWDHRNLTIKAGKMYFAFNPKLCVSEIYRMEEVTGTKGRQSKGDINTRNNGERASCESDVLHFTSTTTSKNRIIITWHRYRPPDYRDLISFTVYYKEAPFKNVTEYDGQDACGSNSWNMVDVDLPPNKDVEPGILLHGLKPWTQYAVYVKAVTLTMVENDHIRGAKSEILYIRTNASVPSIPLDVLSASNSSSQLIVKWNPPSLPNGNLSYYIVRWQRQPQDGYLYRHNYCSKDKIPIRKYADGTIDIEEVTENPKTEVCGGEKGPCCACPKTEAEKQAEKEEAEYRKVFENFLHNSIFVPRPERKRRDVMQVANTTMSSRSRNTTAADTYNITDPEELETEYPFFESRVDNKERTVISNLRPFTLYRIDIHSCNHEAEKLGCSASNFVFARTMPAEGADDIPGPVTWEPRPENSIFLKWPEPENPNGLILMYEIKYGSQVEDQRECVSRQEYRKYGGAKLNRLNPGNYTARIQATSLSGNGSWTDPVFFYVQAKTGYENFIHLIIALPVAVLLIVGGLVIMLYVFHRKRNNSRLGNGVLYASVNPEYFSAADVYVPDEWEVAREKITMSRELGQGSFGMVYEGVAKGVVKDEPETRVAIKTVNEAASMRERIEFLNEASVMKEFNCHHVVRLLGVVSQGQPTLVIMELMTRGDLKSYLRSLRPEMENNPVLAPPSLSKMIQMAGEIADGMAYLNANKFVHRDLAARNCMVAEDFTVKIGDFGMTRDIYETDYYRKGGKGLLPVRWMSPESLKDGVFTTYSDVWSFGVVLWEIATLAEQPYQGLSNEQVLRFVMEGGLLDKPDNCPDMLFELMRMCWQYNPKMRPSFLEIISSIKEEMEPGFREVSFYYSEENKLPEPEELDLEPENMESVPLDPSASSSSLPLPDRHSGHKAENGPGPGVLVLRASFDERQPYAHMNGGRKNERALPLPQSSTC

[32] = molecular target: GRK6 (human) (UniProt P43250)
[33] = molecular target: ZAP70 (human) (UniProt P43403)
[34] = molecular target: STK3 (human) (UniProt Q13188)
[35] = molecular target: MLTK (human) (UniProt Q9NYL2)
[36] = molecular target: PHKG1 (human) (UniProt Q16816)
[37] = molecular target: PAK4 (human) (UniProt O96013)
[38] = molecular target: EPHA8 (human) (UniProt P29322)
[39] = molecular target: PAK7 (human) (UniProt Q9P286)
Sequence of PAK7 (human) (Q9P286 whole entry, looked up): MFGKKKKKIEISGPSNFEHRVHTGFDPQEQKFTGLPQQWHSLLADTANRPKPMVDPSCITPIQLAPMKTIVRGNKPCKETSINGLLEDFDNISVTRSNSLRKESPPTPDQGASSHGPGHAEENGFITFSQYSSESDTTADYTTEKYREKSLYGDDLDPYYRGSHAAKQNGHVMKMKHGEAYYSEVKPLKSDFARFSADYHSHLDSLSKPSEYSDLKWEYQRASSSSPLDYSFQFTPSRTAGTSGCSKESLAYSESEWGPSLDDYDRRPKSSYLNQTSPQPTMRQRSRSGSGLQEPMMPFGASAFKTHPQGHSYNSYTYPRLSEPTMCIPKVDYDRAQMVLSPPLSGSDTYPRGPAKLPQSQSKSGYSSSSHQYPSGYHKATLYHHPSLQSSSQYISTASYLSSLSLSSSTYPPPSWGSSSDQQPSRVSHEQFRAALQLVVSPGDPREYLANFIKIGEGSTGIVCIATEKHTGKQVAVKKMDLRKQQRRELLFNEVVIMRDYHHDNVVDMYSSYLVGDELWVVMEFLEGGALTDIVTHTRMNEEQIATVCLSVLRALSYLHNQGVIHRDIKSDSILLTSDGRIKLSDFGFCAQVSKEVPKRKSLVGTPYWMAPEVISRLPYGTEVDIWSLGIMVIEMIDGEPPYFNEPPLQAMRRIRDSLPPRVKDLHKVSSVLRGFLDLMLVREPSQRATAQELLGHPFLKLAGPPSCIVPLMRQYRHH

[40] = molecular target: PBK (human) (UniProt Q96KB5)
Sequence of PBK (human) (Q96KB5 whole entry, looked up): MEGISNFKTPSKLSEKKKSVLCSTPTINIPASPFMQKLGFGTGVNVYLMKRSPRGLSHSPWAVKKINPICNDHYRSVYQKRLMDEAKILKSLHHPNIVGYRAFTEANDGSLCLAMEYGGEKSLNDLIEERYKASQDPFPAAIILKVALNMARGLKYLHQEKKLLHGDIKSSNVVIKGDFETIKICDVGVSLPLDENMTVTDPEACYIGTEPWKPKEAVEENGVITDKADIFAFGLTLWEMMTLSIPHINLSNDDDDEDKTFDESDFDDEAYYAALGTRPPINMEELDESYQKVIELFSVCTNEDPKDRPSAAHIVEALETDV

[41] = molecular target: PRKD2 (human) (UniProt Q9BZL6)
[42] = molecular target: CAMK1D (human) (UniProt Q8IU85)

**Q.** What does the source list for C[C@@H]1CCN(C(=O)CC#N)C[C@@H]1N(C)c1ncnc2[nH]ccc12?
**A.** residual activity [1]: 98.6%; residual activity [2]: 113%; residual activity [3]: 101%; residual activity [4]: 100%; residual activity [5]: 94.8%; residual activity [6]: 93.5%; residual activity [7]: 80.2%; residual activity [8]: 89.8%; residual activity [9]: 94.8%; residual activity [10]: 94.1%; residual activity [11]: 107%; residual activity [12]: 93.4%; residual activity [13]: 110%; residual activity [14]: 111%; residual activity [15]: 98%; residual activity [16]: 101%; residual activity [17]: 100%; residual activity [18]: 99.5%; residual activity [19]: 96.2%; residual activity [20]: 98.1%; residual activity [21]: 91.8%; residual activity [22]: 78.7%; residual activity [23]: 99.8%; residual activity [24]: 100%; residual activity [25]: 106%; residual activity [26]: 98.6%; residual activity [27]: 90%; residual activity [28]: 104%; residual activity [29]: 96.9%; residual activity [30]: 79.4%; residual activity [31]: 93.1%; residual activity [32]: 101%; residual activity [33]: 105%; residual activity [34]: 85.8%; residual activity [35]: 98.2%; residual activity [36]: 90%; residual activity [37]: 99.2%; residual activity [38]: 109%; residual activity [39]: 93.6%; residual activity [40]: 102%

**Q.** For Cc1cncc2cccc(S(=O)(=O)N3CCCN(C(=O)CN)C[C@H]3C)c12, which residual activity [1] is on record?
**A.** 103%

**Q.** And the residual activity [2]?
**A.** 94.4%

**Q.** And the residual activity [3]?
**A.** 101%

**Q.** And the residual activity [4]?
**A.** 94.1%

**Q.** And the residual activity [5]?
**A.** 100%

**Q.** What about the residual activity [6] of the same compound?
**A.** 94%

**Q.** And the residual activity [7]?
**A.** 97%

**Q.** What about the residual activity [8] of the same compound?
**A.** 85.4%

**Q.** What about the residual activity [9] of the same compound?
**A.** 95%

**Q.** What about the residual activity [10] of the same compound?
**A.** 98.7%

**Q.** What about the residual activity [11] of the same compound?
**A.** 113%

**Q.** What about the residual activity [12] of the same compound?
**A.** 110%

**Q.** What about the residual activity [41] of the same compound?
**A.** 96%

**Q.** And the residual activity [13]?
**A.** 99.6%

**Q.** And the residual activity [42]?
**A.** 104%

**Q.** What about the residual activity [14] of the same compound?
**A.** 99.7%

**Q.** What about the residual activity [15] of the same compound?
**A.** 97.2%

**Q.** And the residual activity [17]?
**A.** 99.2%

**Q.** What about the residual activity [18] of the same compound?
**A.** 104%

**Q.** And the residual activity [19]?
**A.** 98.6%

**Q.** And the residual activity [20]?
**A.** 96%

**Q.** And the residual activity [21]?
**A.** 89.1%

**Q.** And the residual activity [22]?
**A.** 109%

**Q.** What about the residual activity [23] of the same compound?
**A.** 93.6%

**Q.** What about the residual activity [24] of the same compound?
**A.** 103%

**Q.** And the residual activity [25]?
**A.** 107%

**Q.** And the residual activity [26]?
**A.** 90.5%

**Q.** What about the residual activity [27] of the same compound?
**A.** 87.5%

**Q.** What about the residual activity [28] of the same compound?
**A.** 103%

**Q.** And the residual activity [29]?
**A.** 90.2%

**Q.** What about the residual activity [30] of the same compound?
**A.** 83%

**Q.** What about the residual activity [31] of the same compound?
**A.** 110%

**Q.** What about the residual activity [32] of the same compound?
**A.** 85.5%

**Q.** And the residual activity [33]?
**A.** 102%

**Q.** What about the residual activity [34] of the same compound?
**A.** 104%

**Q.** What about the residual activity [35] of the same compound?
**A.** 108%

**Q.** And the residual activity [36]?
**A.** 65.3%

**Q.** What about the residual activity [37] of the same compound?
**A.** 99.5%

**Q.** What about the residual activity [38] of the same compound?
**A.** 95%

**Q.** What about the residual activity [39] of the same compound?
**A.** 101%

**Q.** And the residual activity [40]?
**A.** 98.6%

**Q.** Which results are given for Fc1ccc(-c2nc3n(c2-c2ccncc2)CCS3)cc1?
**A.** residual activity [1]: 103%; residual activity [2]: 83.6%; residual activity [3]: 101%; residual activity [4]: 98.2%; residual activity [6]: 95.7%; residual activity [7]: 96.2%; residual activity [8]: 88.2%; residual activity [9]: 101%; residual activity [10]: 112%; residual activity [11]: 124%; residual activity [12]: 43.1%; residual activity [41]: 94.7%; residual activity [13]: 41.1%; residual activity [42]: 100%; residual activity [14]: 84.7%; residual activity [15]: 95.9%; residual activity [17]: 97.9%; residual activity [18]: 103%; residual activity [19]: 102%; residual activity [20]: 95.8%; residual activity [21]: 96.4%; residual activity [22]: 113%; residual activity [23]: 98.2%; residual activity [24]: 116%; residual activity [25]: 103%; residual activity [26]: 104%; residual activity [27]: 105%; residual activity [28]: 94.9%; residual activity [29]: 99.2%; residual activity [30]: 102%; residual activity [31]: 106%; residual activity [32]: 103%; residual activity [33]: 107%; residual activity [34]: 111%; residual activity [35]: 100%; residual activity [36]: 94.6%; residual activity [37]: 99.1%; residual activity [38]: 88.2%; residual activity [39]: 97.6%; residual activity [40]: 100%
